Assay results from patent US12509447B2, “Small molecule compound” (Technoderma Medicines Pte Ltd, priority 2019, dated 2025).

Columns and labels:
Assay type in all cases: biochemical
Tyk2 = Tyk2 (Homo sapiens, UniProt P29597); assay: Inhibition of JAK kinase activity, EZ Reader microfluidic phosphorylation of peptide substrate: Tyk2; details: Tyk2 kinase 1 nM; highest final concentration 10 μM, 1:3 serial dilution, 8 points, duplicates
Source text: (§1) EZ Reader available from PerkinElmer can be used for detecting the phosphorylation of polypeptide substrates catalyzed by kinases. This device is based on microfluidic separation technology, and can directly detect fluorescence labeled substrates and products. The separation step is achieved in a microfluidic chip by controlling the pressure and electric field intensity. In a kinase experiment, the product conversion rate is generally controlled at 20-30%. This biological assay method is used for identifying the inhibitory effect of the compounds on JAK.
(§2) The compound powder was dissolved in DMSO, sealed and stored in a refrigerator at −20° C. The in-house compound Ref1 was used as a positive control for testing of JAK1, JAK2 and Tyk2, and Ref2 was used as a positive control for testing of JAK3.
(§3) • S2.1. 1M HEPES buffer: 0.5M HEPES free acid and 0.5M HEPES sodium salt are weighed, added into ultrapure water for dissolution, brought to a desired volume, filtered and stored in a refrigerator at 4° C. • S2.2. 40 mM ATP solution: dissolved in a 50 mM HEPES buffer solution, prepared into 40 mM, aliquoted, and cryopreserved in a refrigerator at −20° C. • S2.3. 0.5% Tween 20: 100% Tween 20 was diluted with ultrapure water, and stored in a refrigerator at 4° C. • S2.4. 35% bovine serum albumin: a 35% bovine serum albumin solution is prepared in ultrapure water, aliquoted, and stored in a refrigerator at −20° C. • S2.5. 1M dithiothreitol solution: dithiothreitol is formulated into a 1M solution with ultrapure water, aliquoted, and stored in a refrigerator at −20° C. • S2.6. 0.5 mM Jaktide Peptide substrate solution: it is dissolved in 50 mM HEPES to 0.5 mM, aliquoted, and stored in a refrigerator at −20° C. • S2.7. 0.5 mM IRStide Peptide substrate solution: it is dissolved in 50 mM HEPES to 0.5 mM, aliquoted, and stored in a refrigerator at −20° C. • S2.8. Assay Buffer: 20 mM HEPES buffer, pH 7.4, 10 mM magnesium chloride, 0.01% bovine serum albumin BSA, 0.0005% Tween-20, and a 1 mM dithiothreitol solution. • S2.9. Stop Buffer: 180 mM HEPES buffer, 20 mM ethylenediamine tetraacetic acid (EDTA), and 0.2% Coating Reagent 3. • S2.10. Separation Buffer: 100 mM HEPES buffer, 10 mM EDTA, 0.0005% Tween 20, 0.1% Coating Reagent 3, and 1% dimethyl sulfoxide. 3. Experimental Procedures • S3.1. Preparation of compound plate
(§4) The compound is dissolved in dimethyl sulfoxide to 10 mM, a certain volume is taken and diluted to 0.6 mM, 10 μl of the diluted 0.6 mM solution is taken and added into a 384 microplate or 1:3 serial dilution, with a total of 8 concentration points. • S3.2. Compound layout
(§5) • positive control (HPE1): Ref1, final concentration: 10 μM • positive control (HPE1): Ref2, final concentration: 10 μM • negative control (ZPE): DMSO, with a final concentration of 1.6% • Compound: the highest final concentration at 10 μM, 1:3 serial dilution, with 8 concentration points and in duplicates. 4. Experimental operation steps • S4.1. the experimental plate was added with 250 nl of the compound per well with ECHO, and centrifuged at 1,000 rpm for 1 minute; • S4.2. the precipitate was added with 5 μl of the experimental buffer, and shaken for several seconds to fully dissolve the compound; • S4.3. the solution was added with 5 μl of a 3× substrate solution, as well as 5 μl of a 3× kinase solution, and centrifuged at 800 rpm for 1 minute; • S4.4. The final concentrations of JAK1, JAK2, JAK3 and Tyk2 kinases in the reaction system are 20, 1, 1 and 1 nM, respectively. • S4.5. the reaction system is incubated at room temperature, wherein the incubation time of each kinase is different, and there are differences in incubation time of different batches of kinases. • S4.6. When the reaction reaches 20%-30%, the reaction system is added with 15 μl of the stop buffer to terminate the reaction, and centrifuged at 1,000 rpm for 2 minutes. • S4.7. The precipitate was placed onto a EZ Reader for plate reading. • S4.8. […]

JAK1 = JAK1 (Homo sapiens, UniProt P23458); assay: Inhibition of JAK kinase activity, EZ Reader microfluidic phosphorylation of peptide substrate: JAK1; details: JAK1 kinase 20 nM; highest final concentration 10 μM, 1:3 serial dilution, 8 points, duplicates
Chain of JAK1 (P23458 whole entry): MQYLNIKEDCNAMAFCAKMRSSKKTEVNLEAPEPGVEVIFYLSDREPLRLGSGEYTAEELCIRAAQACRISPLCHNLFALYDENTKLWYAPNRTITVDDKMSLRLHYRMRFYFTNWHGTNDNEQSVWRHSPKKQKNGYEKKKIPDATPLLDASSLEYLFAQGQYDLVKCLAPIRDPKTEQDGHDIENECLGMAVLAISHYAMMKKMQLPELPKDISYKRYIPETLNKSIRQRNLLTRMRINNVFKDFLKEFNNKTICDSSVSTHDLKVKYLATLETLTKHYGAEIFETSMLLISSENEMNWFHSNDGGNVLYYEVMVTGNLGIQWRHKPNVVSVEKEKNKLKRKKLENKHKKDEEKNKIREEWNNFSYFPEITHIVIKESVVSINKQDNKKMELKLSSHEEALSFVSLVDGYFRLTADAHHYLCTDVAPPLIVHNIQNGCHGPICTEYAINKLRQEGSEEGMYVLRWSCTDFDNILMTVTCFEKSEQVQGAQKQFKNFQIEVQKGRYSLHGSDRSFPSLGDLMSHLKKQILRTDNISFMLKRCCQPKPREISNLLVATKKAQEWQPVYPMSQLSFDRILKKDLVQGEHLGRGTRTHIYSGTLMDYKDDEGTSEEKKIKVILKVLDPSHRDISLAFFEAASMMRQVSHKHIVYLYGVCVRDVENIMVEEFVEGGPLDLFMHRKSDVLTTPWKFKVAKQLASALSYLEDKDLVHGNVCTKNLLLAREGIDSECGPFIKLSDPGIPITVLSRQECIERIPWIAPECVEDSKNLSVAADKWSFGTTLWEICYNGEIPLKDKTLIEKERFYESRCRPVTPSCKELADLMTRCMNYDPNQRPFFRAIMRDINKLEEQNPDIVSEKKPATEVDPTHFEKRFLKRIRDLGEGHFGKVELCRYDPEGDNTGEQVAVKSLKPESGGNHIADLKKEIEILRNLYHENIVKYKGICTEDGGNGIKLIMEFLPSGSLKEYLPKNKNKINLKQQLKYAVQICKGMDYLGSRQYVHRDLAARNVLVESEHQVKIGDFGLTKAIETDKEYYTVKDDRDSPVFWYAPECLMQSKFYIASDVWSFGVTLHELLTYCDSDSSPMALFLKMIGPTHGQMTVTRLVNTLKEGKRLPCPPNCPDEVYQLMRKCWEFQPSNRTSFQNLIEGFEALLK
Source text: as §1, §2, §3, §4, §5

JAK2 = JAK2 (Homo sapiens, UniProt O60674); assay: Inhibition of JAK kinase activity, EZ Reader microfluidic phosphorylation of peptide substrate: JAK2; details: JAK2 kinase 1 nM; highest final concentration 10 μM, 1:3 serial dilution, 8 points, duplicates
Chain of JAK2 (O60674 whole entry): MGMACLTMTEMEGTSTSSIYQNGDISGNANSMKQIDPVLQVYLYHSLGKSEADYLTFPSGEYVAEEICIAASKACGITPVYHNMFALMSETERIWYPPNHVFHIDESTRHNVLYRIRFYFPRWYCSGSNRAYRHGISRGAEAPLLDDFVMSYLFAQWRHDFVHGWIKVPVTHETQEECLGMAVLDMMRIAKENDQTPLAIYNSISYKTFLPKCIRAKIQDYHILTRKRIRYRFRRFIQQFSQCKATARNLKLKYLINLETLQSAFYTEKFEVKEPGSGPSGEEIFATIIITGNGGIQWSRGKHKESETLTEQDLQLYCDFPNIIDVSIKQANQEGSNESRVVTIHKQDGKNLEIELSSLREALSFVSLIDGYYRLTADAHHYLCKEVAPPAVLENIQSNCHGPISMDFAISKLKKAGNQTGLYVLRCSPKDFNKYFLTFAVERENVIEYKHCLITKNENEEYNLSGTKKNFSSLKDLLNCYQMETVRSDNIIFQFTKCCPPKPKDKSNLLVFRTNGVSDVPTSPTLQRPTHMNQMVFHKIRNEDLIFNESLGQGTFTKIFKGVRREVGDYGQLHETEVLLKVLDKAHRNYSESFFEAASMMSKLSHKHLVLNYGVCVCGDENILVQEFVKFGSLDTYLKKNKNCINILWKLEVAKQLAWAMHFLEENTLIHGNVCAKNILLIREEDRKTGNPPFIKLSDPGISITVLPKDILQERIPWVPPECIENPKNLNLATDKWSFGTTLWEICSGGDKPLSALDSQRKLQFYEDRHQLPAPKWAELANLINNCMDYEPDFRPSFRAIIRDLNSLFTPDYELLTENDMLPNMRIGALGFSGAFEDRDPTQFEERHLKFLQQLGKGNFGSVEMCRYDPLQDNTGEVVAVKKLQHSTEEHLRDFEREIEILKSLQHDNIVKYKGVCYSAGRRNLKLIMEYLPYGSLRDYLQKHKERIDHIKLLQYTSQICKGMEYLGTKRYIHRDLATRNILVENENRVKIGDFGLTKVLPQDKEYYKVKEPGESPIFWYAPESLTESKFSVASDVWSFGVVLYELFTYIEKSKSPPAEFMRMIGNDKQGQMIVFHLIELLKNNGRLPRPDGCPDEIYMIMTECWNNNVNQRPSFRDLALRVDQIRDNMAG
Source text: as §1, §2, §3, §4, §5

JAK3 = target: T1, JAK3 (Homo sapiens, UniProt P52333); assay: Inhibition of JAK kinase activity, EZ Reader microfluidic phosphorylation of peptide substrate: JAK3; details: JAK3 kinase 1 nM; highest final concentration 10 μM, 1:3 serial dilution, 8 points, duplicates
T1 sequence (P52333 1-1124): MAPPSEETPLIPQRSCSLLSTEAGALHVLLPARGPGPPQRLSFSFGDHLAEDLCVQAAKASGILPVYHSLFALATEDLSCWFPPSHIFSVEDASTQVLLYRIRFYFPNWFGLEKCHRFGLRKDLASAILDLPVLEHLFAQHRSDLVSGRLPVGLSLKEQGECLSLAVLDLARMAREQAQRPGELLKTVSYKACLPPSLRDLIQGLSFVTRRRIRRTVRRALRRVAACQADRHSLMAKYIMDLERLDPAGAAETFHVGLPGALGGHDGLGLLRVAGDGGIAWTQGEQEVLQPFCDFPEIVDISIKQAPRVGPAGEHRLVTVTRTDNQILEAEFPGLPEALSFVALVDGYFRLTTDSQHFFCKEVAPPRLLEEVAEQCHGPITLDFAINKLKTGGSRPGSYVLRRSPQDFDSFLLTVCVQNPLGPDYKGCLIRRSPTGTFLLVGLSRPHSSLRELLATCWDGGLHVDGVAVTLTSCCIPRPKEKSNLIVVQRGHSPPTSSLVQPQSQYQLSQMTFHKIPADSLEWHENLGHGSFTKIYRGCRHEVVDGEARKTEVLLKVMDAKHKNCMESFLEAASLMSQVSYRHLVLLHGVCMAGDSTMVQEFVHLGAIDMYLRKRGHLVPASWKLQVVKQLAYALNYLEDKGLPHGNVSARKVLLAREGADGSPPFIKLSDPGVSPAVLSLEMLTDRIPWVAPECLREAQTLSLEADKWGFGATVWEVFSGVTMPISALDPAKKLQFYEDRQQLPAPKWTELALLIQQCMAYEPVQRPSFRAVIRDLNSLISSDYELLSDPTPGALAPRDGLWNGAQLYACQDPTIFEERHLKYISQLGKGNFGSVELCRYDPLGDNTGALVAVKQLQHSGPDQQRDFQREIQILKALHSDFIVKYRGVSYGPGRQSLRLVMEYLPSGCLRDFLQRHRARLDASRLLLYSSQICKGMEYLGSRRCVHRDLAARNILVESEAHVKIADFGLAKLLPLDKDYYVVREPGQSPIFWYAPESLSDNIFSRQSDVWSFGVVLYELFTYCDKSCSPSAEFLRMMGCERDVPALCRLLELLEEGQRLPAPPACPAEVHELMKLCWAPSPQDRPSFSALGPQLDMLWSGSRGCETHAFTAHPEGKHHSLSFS
Source text: as §1, §2, §3, §4, §5

Chain of Tyk2 (P29597 whole entry): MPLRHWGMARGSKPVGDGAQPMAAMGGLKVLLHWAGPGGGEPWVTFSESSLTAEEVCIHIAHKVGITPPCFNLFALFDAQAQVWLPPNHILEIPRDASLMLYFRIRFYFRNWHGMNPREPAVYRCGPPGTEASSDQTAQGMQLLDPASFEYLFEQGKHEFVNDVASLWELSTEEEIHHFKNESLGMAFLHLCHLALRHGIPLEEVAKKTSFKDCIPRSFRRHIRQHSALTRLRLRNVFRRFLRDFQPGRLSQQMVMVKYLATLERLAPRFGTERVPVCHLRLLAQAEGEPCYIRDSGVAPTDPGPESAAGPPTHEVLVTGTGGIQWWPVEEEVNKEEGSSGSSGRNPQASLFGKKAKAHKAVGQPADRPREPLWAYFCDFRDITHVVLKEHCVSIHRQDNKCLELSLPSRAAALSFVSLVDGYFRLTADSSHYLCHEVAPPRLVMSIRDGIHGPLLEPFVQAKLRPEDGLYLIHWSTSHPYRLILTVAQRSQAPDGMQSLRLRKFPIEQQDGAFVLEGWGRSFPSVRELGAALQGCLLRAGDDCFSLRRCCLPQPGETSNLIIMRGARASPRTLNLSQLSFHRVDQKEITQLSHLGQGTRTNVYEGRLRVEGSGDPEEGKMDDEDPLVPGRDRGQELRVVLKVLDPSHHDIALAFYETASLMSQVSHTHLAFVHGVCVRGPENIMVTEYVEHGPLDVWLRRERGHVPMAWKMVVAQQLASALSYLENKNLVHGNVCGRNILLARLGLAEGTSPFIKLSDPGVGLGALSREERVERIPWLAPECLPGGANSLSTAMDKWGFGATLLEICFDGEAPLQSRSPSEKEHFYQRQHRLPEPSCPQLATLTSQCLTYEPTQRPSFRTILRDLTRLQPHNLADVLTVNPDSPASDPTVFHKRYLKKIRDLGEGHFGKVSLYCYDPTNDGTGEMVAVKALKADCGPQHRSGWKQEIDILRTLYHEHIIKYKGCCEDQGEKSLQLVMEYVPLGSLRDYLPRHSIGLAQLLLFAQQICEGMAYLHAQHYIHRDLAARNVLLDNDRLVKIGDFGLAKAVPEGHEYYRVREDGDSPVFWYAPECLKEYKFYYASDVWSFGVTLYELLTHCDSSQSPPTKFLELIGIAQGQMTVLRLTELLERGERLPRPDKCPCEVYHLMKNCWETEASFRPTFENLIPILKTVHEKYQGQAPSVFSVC

IC50 (Tyk2) [µM]	IC50 (JAK1) [µM]	IC50 (JAK2) [µM]	IC50 (JAK3) [µM]	Structure (SMILES)
≥ 10	≥ 10	≥ 10	≥ 10	CCCS(=O)(=O)N1CC(n2cc(-c3ccnc(Nc4cnn(C)c4)c3)cn2)C1 [TDM-180643, N-(1-methyl-1H-pyrazol-4-yl)-4-(1-(1-(propylsulfonyl)azetidin-3-yl)-1H-pyrazol-4-yl)pyridine-2-amine]
≥ 10	≥ 10	≥ 10	≥ 10	Cn1cc(Nc2cc(-c3cnn(C4CN(C(=O)CO)C4)c3)ccn2)cn1 [TDM-180644, 2-hydroxy-1-(3-(4-(2-((1-methyl-1H-pyrazol-4-yl)amino)pyridin-4-yl)-1H-pyrazol-1-yl)azetidin-1-yl)ethan-1-one]
≥ 10	≥ 10	≥ 10	≥ 10	CC(=O)N1CC(n2cc(-c3ccnc(Nc4cnn(C)c4)c3)cn2)C1 [TDM-180645]
≥ 10	≥ 10	≥ 10	≥ 10	CCC(=O)N1CC(n2cc(-c3ccnc(Nc4cnn(C)c4)n3)cn2)C1 [TDM-180646, 1-(3-(4-(2-((1-methyl-1H-pyrazol-4-yl)amino)pyrimidin-4-yl)-1H-pyrazol-1-yl)azetidin-1-yl)propan-1-one]
≥ 10	≥ 10	1 to 10	1 to 10	CCS(=O)(=O)N1CCC(n2cc(-c3ccnc(Nc4cnn(C)c4)n3)cn2)C1 (stereo not drawn) [TDM-180647, 4-(1-(1-(ethylsulfonyl)pyrrolidine-3-yl)-1H-pyrazol-4-yl)-N-(1-methyl-1H-pyrazol-4-yl)pyrimidin-2-amine]
1 to 10	1 to 10	1 to 10	1 to 10	CCCS(=O)(=O)N1CCC(n2cc(-c3ccnc(Nc4cnn(C)c4)n3)cn2)C1 (stereo not drawn) [TDM-180648, N-(1-methyl-1H-pyrazol-4-yl)-4-(1-(1-(propylsulfonyl)pyrrolidine-3-yl)-1H-pyrazol-4-yl)pyrimidin-2-amine]
≥ 10	≥ 10	≥ 10	≥ 10	CCC(=O)N1CCC(n2cc(-c3ccnc(Nc4cnn(C)c4)n3)cn2)C1 (stereo not drawn) [TDM-180649, 1-(3-(4-(2-((1-methyl-1H-pyrazol-4-yl)amino)pyrimidin-4-yl)-1H-pyrazol-1-yl)pyrrolidin-1-yl)propan-1-one]
≥ 10	≥ 10	≥ 10	≥ 10	CCCC(=O)N1CCC(n2cc(-c3ccnc(Nc4cnn(C)c4)n3)cn2)C1 (stereo not drawn) [TDM-180650, 1-(3-(4-(2-((1-methyl-1H-pyrazol-4-yl)amino)pyrimidin-4-y1)-1H-pyrazol-1-yl)pyrrolidin-1-yl)butan-1-one]
≥ 10	≥ 10	1 to 10	≥ 10	Cn1cc(Nc2nccc(-c3cnn(C4CCN(C(=O)CC(F)(F)F)C4)c3)n2)cn1 (stereo not drawn) [TDM-180651, 3,3,3-trifluoro-1-(3-(4-(2-((1-methyl-1H-pyrazol-4-yl)amino)pyrimidin-4-yl)-1H-pyrazol-1-yl)pyrrolidine-yl)propan-1-one]
≥ 10	≥ 10	≥ 10	≥ 10	Cn1cc(Nc2nccc(-c3cnn(C4CCN(C(=O)C5CC5)C4)c3)n2)cn1 (stereo not drawn) [TDM-180652, cyclopropyl(3-(4-(2-((1-methyl-1H-pyrazol-4-yl)amino)pyrimidin-4-yl)-1H-pyrazol-1-yl)pyrrolidin-1-yl)ketone]
1 to 10	≥ 10	1 to 10	≥ 10	Cn1cc(Nc2nccc(-c3cnn(C4CCN(C(=O)CC#N)C4)c3)n2)cn1 (stereo not drawn) [TDM-180653, 3-(3-(4-(2-((1-methyl-1H-pyrazol-4-yl)amino)pyrimidin-4-yl)-1H-pyrazol-1-yl)pyrrolidin-1-yl)-3-oxopropanenitrile]
1 to 10	≥ 10	1 to 10	≥ 10	Cn1cc(Nc2nccc(-c3cnn(C4CCN(C(=O)C5CC5(F)F)C4)c3)n2)cn1 (stereo not drawn) [TDM-180654, (2,2-difluorocyclopropyl)(3-(4-(2-((1-methyl-1H-pyrazol-4-yl)amino)pyrimidin-4-yl)-1H-pyrazol-1-yl)pyrrolidin-1-yl)ketone]
